Source: the NIST ThermoML archive (doi:10.1016/j.tca.2013.12.016)

Experiment: mn = molality of the nth substance listed, in mol/kg
Settings: 101 kPa, Liquid; for speed of sound: Linear variable-path acoustic interferometer; for mass density: Vibrating tube method

CCOC(C)=O [ethyl acetate] + CO
Settings | mass density, 298.15 K [kg/m3] | mass density, 303.15 K [kg/m3] | mass density, 308.15 K [kg/m3] | mass density, 313.15 K [kg/m3] | speed of sound, 298.15 K [m/s] | speed of sound, 303.15 K [m/s] | speed of sound, 308.15 K [m/s] | speed of sound, 313.15 K [m/s]
m2 = 0.0111 | 894.5 | 888.9 | 883 | 877.1 | 1110 | 1086 | 1059 | 1038
m2 = 0.0223 | 894.6 | 888.8 | 882.9 | 877 | 1113 | 1089 | 1062 | 1041
m2 = 0.0495 | 894.7 | 888.7 | 882.8 | 876.9 | 1116 | 1092 | 1065 | 1044
m2 = 0.1474 | 894.9 | 888.6 | 882.7 | 876.8 | 1119 | 1095 | 1068 | 1047
m2 = 0.2878 | 894.7 | 888.5 | 882.4 | 876.4 | 1122 | 1098 | 1071 | 1050
m2 = 0.3556 | 894.4 | 888.3 | 882.1 | 876.2 | 1125 | 1101 | 1074 | 1053
m2 = 0.4905 | 893.6 | 887.7 | 881.6 | 875.8 | 1128 | 1104 | 1077 | 1056
m2 = 0.7268 | 892.2 | 886.4 | 880.6 | 874.8 | 1131 | 1107 | 1080 | 1059
m2 = 0.974 | 890.5 | 884.9 | 879.1 | 873.8 | 1134 | 1110 | 1089 | 1062
m2 = 1.409 | 888.2 | 882.6 | 877 | 871.6 | 1137 | 1113 | 1092 | 1065
m2 = 2.445 | 886.1 | 879.8 | 873.8 | 868.4 | 1140 | 1116 | 1095 | 1068
m2 = 3.001 | 886 | 879.1 | 873.1 | 867.9 | 1143 | 1122 | 1098 | 1071

COC(C)=O [methyl ethanoate] + CCO
Settings | mass density, 298.15 K [kg/m3] | mass density, 303.15 K [kg/m3] | mass density, 308.15 K [kg/m3] | mass density, 313.15 K [kg/m3] | speed of sound, 298.15 K [m/s] | speed of sound, 303.15 K [m/s] | speed of sound, 308.15 K [m/s] | speed of sound, 313.15 K [m/s]
m2 = 0.0152 | 927 | 920.5 | 914.2 | 908 | 1153 | 1134 | 1113 | 1089
m2 = 0.0357 | 926.8 | 920.3 | 914 | 907.8 | 1152 | 1131 | 1110 | 1086
m2 = 0.065 | 926.6 | 920.1 | 913.8 | 907.6 | 1150 | 1130 | 1108 | 1084
m2 = 0.102 | 926.3 | 919.8 | 913.5 | 907.3 | 1149 | 1128 | 1107 | 1083
m2 = 0.2098 | 925.5 | 919 | 912.7 | 906.5 | 1146 | 1125 | 1104 | 1080
m2 = 0.3417 | 924.5 | 918 | 911.7 | 905.5 | 1143 | 1122 | 1101 | 1077
m2 = 0.5068 | 923.1 | 916.7 | 910.4 | 904.1 | 1140 | 1119 | 1098 | 1074
m2 = 0.6769 | 921.8 | 915.4 | 909.1 | 902.8 | 1137 | 1116 | 1095 | 1071
m2 = 0.9775 | 919.5 | 913.1 | 906.9 | 900.6 | 1134 | 1113 | 1092 | 1068
m2 = 1.702 | 914.4 | 908 | 901.9 | 895.5 | 1131 | 1110 | 1089 | 1065
m2 = 2.712 | 907.8 | 901.5 | 895.4 | 889 | 1128 | 1107 | 1086 | 1062
m2 = 3 | 905.8 | 899.7 | 893.5 | 887.1 | 1122 | 1104 | 1080 | 1056
